From ChEMBL document CHEMBL2021790, “Pyridone methylsulfone hydroxamate LpxC inhibitors for the treatment of serious gram-negative infections” (J Med Chem, 2012) come the findings set out here.

A short description of data set [1]: Thermodynamic solubility of the compound in thermosol at pH 7.4. It is filed as physicochemical. To be noted: buffer, read-out: Therm_solubility.
Data set [2] concerns Pseudomonas aeruginosa. Kind of data set: Antimicrobial activity against Pseudomonas aeruginosa PA3919 with (delta(mexAB-OprM)delta(mexXY)delta(MexZ) phenotype after 16 to 20 hrs by 2-fold microbroth dilution method. It is filed as functional. For orientation: Broth dilution looks for growth in wells or tubes with falling amounts of substance.
Another data set has as its system Escherichia coli. In words: microbe, parasite or virus in culture.
A short description of data set [3]: Fraction unbound in human plasma relative to untreated control. The data set is classed as ADME, cell-free.
In a further data set the test system is Klebsiella aerogenes. Kind of data set: microbe, parasite or virus in culture.
Data set [4] in a line: Thermodynamic solubility of the compound in thermosol at pH 9. The data set is classed as physicochemical. To be noted: buffer, read-out: Therm_solubility.
Data set [5] in a line: Thermodynamic solubility of the compound in thermosol at pH 3.0. The data set is classed as physicochemical. To be noted: buffer, read-out: Therm_solubility.
A further data set relates to Klebsiella pneumoniae. Kind of data set: microbe, parasite or virus in culture.
The test system of data set [6] is Pseudomonas aeruginosa. In words: microbe, parasite or virus in culture.
Description: Antimicrobial activity against Pseudomonas aeruginosa after 16 to 20 hrs by 2-fold microbroth dilution method
In data set [7] the test system is Pseudomonas aeruginosa. Kind of data set: Antimicrobial activity against wild type Pseudomonas aeruginosa PA01 after 16 to 20 hrs by 2-fold microbroth dilution method. It is filed as functional.
For a further data set, the system named is Citrobacter freundii. In words: microbe, parasite or virus in culture.
Data set [8] is described as follows: Fraction unbound in rat plasma relative to untreated control. The data set is classed as ADME, cell-free.
The next data set relates to Acinetobacter sp. Kind of data set: Antimicrobial activity against Acinetobacter sp. after 16 to 20 hrs by 2-fold microbroth dilution method. It is filed as functional.
Data set [9] concerns the target T1, UDP-3-O-acyl-N-acetylglucosamine deacetylase (Pseudomonas aeruginosa (strain ATCC 15692 / PAO1 / 1C / PRS 101 / LMG12228), UniProt P47205).
T1 sequence (P47205 whole entry): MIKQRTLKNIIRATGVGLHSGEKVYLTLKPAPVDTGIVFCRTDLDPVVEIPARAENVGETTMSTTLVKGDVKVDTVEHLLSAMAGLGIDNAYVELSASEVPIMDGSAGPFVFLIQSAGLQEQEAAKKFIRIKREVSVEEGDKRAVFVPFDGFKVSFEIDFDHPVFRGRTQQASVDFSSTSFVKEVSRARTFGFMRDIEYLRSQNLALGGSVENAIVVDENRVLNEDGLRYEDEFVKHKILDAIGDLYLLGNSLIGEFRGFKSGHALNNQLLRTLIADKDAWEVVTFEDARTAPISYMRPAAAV
Kind of data set: Inhibition of Pseudomonas aeruginosa LpxC expressed in Escherichia coli using UDP-3-O-N-acetylglucosamine substrate measured after 30 mins by mass spectrometry.

Data set [10] is described as follows: AUC in rat at 10 mg/kg. It is filed as ADME, organism-based. To be noted: plasma. More on the design: dose 10 mg/kg.
Data set [11] is described as follows: Half life in rat at 10 mg/kg. The data set is classed as ADME, organism-based. Further details: dose 10 mg/kg. To be noted: in vivo.
The nature of data set [12]: Volume of distribution at steady state in rat at 10 mg/kg. To be noted: in vivo, read-out: Vdss. Further details: dose 10 mg/kg. The data set is classed as ADME, organism-based.
Another data set deals with Rattus norvegicus. Kind of data set: Free AUC in rat at 10 mg/kg. The data set is classed as ADME, organism-based. More on the design: dose 10 mg/kg. To be noted: in vivo.
Data set [13] is described as follows: Clearance in rat at 10 mg/kg. It is filed as ADME, organism-based. To be noted: in vivo. Further details: dose 10 mg/kg.

In brackets after ≈: the same amount, converted by molar mass.

Description for Citrobacter freundii: Antimicrobial activity against Citrobacter freundii after 16 to 20 hrs by 2-fold microbroth dilution method
Description for Escherichia coli: Antimicrobial activity against Escherichia coli after 16 to 20 hrs by 2-fold microbroth dilution method
Description for Klebsiella aerogenes: Antimicrobial activity against Enterobacter aerogenes after 16 to 20 hrs by 2-fold microbroth dilution method
Description for Klebsiella pneumoniae: Antimicrobial activity against Klebsiella pneumoniae after 16 to 20 hrs by 2-fold microbroth dilution method

Regarding `C[C@@](CCn1ccc(-c2ccccc2)cc1=O)(C(=O)NO)S(C)(=O)=O`, the solubility thermodynamic in data set [1] was 480 µg/mL (≈ 1320 µM); in data set [4], greater than 16000 µg/mL; in [5], 410 µg/mL (≈ 1130 µM). The MIC – broadly, the least concentration at which growth counts as inhibited – in the data set on Pseudomonas aeruginosa [2] stood at 0.06 µg/mL (≈ 0.165 µM); in the data set with Pseudomonas aeruginosa [7] it was 0.5 µg/mL (≈ 1.37 µM). In addition, the MIC90 was 8 µg/mL (≈ 22 µM) against Escherichia coli; 16 µg/mL (≈ 43.9 µM) against Klebsiella aerogenes; 16 µg/mL (≈ 43.9 µM) against Klebsiella pneumoniae; 2 µg/mL (≈ 5.49 µM) in the data set with Pseudomonas aeruginosa [6]; 8 µg/mL (≈ 22 µM) against Citrobacter freundii; 32 µg/mL (≈ 87.8 µM) in the data set on Acinetobacter sp.. The values for the fraction unbound in [3] and in [8] were 0.14 and 0.28, respectively.

As to `O=C(O)c1cn(C2CC2)c2cc(N3CCNCC3)c(F)cc2c1=O` [CIPROFLOXACIN], the MIC90 against Escherichia coli is greater than 64 µg/mL; against Klebsiella aerogenes it was 1 µg/mL (≈ 3.02 µM); in the data set on Klebsiella pneumoniae it was 64 µg/mL (≈ 193 µM); against Pseudomonas aeruginosa [6], 64 µg/mL (≈ 193 µM); in the data set with Citrobacter freundii it was 32 µg/mL (≈ 96.6 µM); against Acinetobacter sp., 64 µg/mL (≈ 193 µM).

Turning to `C[C@@](CCn1ccc(-c2ccc(F)c(F)c2F)cc1=O)(C(=O)NO)S(C)(=O)=O`, the minimal inhibitory concentration (MIC) was 0.015 µg/mL (≈ 0.0359 µM) in the data set with Pseudomonas aeruginosa [2] and 0.25 µg/mL (≈ 0.598 µM) in the data set with Pseudomonas aeruginosa [7]. The MIC90 against Escherichia coli was 0.5 µg/mL (≈ 1.2 µM); against Klebsiella aerogenes, 1 µg/mL (≈ 2.39 µM); against Klebsiella pneumoniae, 2 µg/mL (≈ 4.78 µM); against Pseudomonas aeruginosa [6], 1 µg/mL (≈ 2.39 µM); with Citrobacter freundii, 0.5 µg/mL (≈ 1.2 µM); against Acinetobacter sp. it was greater than 64 µg/mL. Further, in [9], 1.5 nM corresponded to half-maximal inhibition (IC50).

Take `C[C@@](CCn1cnc(-c2ccccc2)cc1=O)(C(=O)NO)S(C)(=O)=O`: the results for the MIC with Pseudomonas aeruginosa [2] and with Pseudomonas aeruginosa [7] were 0.03 µg/mL (≈ 0.0821 µM) and 1 µg/mL (≈ 2.74 µM), respectively. In addition, the MIC90 against Escherichia coli came to 8 µg/mL (≈ 21.9 µM); in the data set on Klebsiella aerogenes, 16 µg/mL (≈ 43.8 µM); in the data set on Klebsiella pneumoniae it was 16 µg/mL (≈ 43.8 µM); against Pseudomonas aeruginosa [6], 4 µg/mL (≈ 10.9 µM); against Citrobacter freundii, 16 µg/mL (≈ 43.8 µM); against Acinetobacter sp., 64 µg/mL (≈ 175 µM). Also, the IC50 (as a rule, the concentration that inhibits the measured activity by half) in data set [9] was determined as 8.5 nM.

With `C[C@@](CCn1ccc(-c2ccc(-n3nccn3)cc2)cc1=O)(C(=O)NO)S(C)(=O)=O`, the results for the solubility thermodynamic in data set [1], in [4] and in data set [5] were 9.2 µg/mL (≈ 21.3 µM), 2740 µg/mL (≈ 6350 µM) and 3.3 µg/mL (≈ 7.65 µM), respectively. The MIC against Pseudomonas aeruginosa [2] amounted to 0.015 µg/mL (≈ 0.0348 µM); against Pseudomonas aeruginosa [7], 0.25 µg/mL (≈ 0.579 µM). The MIC90 in the data set on Escherichia coli came to 0.06 µg/mL (≈ 0.139 µM); against Klebsiella aerogenes, 0.125 µg/mL (≈ 0.29 µM); in the data set on Klebsiella pneumoniae it was 0.125 µg/mL (≈ 0.29 µM); with Pseudomonas aeruginosa [6], 1 µg/mL (≈ 2.32 µM); against Citrobacter freundii, 0.125 µg/mL (≈ 0.29 µM); in the data set on Acinetobacter sp. it was 64 µg/mL (≈ 148 µM). The values for the fraction unbound in [3] and in data set [8] were 0.25 and 0.13, respectively. Besides, the AUC (commonly concentration integrated over time) in [10] was 5200 ng·h/mL. Also, the half-life (usually the time in which the quantity being followed falls by half) in [11] is 56.4 min. Further, the Vd in [12] amounted to 0.92 L/kg. The same compound yielded a fAUC with Rattus norvegicus of 0.68 µg·h/mL. Besides, the clearance (as a rule, a measure of how efficiently the substance is removed, as volume per time) in data set [13] was 32 mL/min/kg.

Regarding `COc1ccc(-c2ccn(CC[C@](C)(C(=O)NO)S(C)(=O)=O)c(=O)c2)cn1`, the figures for the MIC with Pseudomonas aeruginosa [2] and with Pseudomonas aeruginosa [7] were 0.06 µg/mL (≈ 0.152 µM) and 2 µg/mL (≈ 5.06 µM), respectively. The MIC90 against Escherichia coli was 8 µg/mL (≈ 20.2 µM); in the data set with Klebsiella aerogenes, 32 µg/mL (≈ 80.9 µM); against Klebsiella pneumoniae, 32 µg/mL (≈ 80.9 µM); against Pseudomonas aeruginosa [6] it was 16 µg/mL (≈ 40.5 µM); in the data set with Citrobacter freundii, 16 µg/mL (≈ 40.5 µM); against Acinetobacter sp. it was greater than 64 µg/mL. Besides, the IC50 in data set [9] stood at 6.4 nM.

Consider `COc1ccc(-c2ccn(CC[C@](C)(C(=O)NO)S(C)(=O)=O)c(=O)c2)c(F)c1`, for which the solubility thermodynamic in data set [1] is 130 µg/mL (≈ 315 µM); in data set [4], greater than 14000 µg/mL; in data set [5], 82 µg/mL (≈ 199 µM). The MIC against Pseudomonas aeruginosa [2] was 0.008 µg/mL (≈ 0.0194 µM); against Pseudomonas aeruginosa [7] it was 0.125 µg/mL (≈ 0.303 µM). In addition, the MIC90 in the data set on Escherichia coli is 0.25 µg/mL (≈ 0.606 µM); with Klebsiella aerogenes, 0.5 µg/mL (≈ 1.21 µM); in the data set with Klebsiella pneumoniae, 0.5 µg/mL (≈ 1.21 µM); against Pseudomonas aeruginosa [6] it was 1 µg/mL (≈ 2.42 µM); in the data set with Citrobacter freundii it was 0.5 µg/mL (≈ 1.21 µM); against Acinetobacter sp. it was greater than 64 µg/mL. Besides, the fraction unbound – broadly, free concentration divided by total concentration – in [3] came to 0.31; in data set [8], 0.32. In [10], this compound yielded an AUC of 2300 ng·h/mL. In data set [11], this compound had a half-life of 84 min. In addition, the Vd in data set [12] amounted to 1.7 L/kg. The same compound gave a fAUC in the data set with Rattus norvegicus of 0.74 µg·h/mL. The clearance in [13] was determined as 72 mL/min/kg.
